The values that follow come from ChEMBL document CHEMBL2406986, “Correlation of hydrogen-bonding propensity and anticancer profile of tetrazole-tethered combretastatin analogues” (Bioorg Med Chem Lett, 2013).

Where only a bound is given, the exact number is not on record here.

For one experiment, the system named is A549. Nature of the experiment: Cytotoxicity against human A549 cells assessed as growth inhibition after 48 hrs by MTT assay. In kind it is functional, cell-based. To be noted: A549, 48 h.
Experiment [1] is described as follows: Inhibition of bovine brain tubulin assembly preincubated for 15 mins followed by GTP addition measured for 20 mins by spectrophotometric analysis. Set-up: species or system Bos taurus.
Another experiment deals with MCF7. Nature of the experiment: Cytotoxicity against human MCF7 cells assessed as growth inhibition after 48 hrs by MTT assay. In kind it is functional, cell-based. To be noted: MCF7, 48 h.
The subject of the next experiment is HeLa. As to the kind of experiment: Cytotoxicity against human HeLa cells assessed as growth inhibition after 48 hrs by MTT assay. The format is functional, cell-based.
A short description of experiment [2]: Cytotoxicity against human H1299 cells assessed as growth inhibition after 48 hrs by MTT assay. The format is functional, cell-based. To be noted: NCI-H1299, 48 h.
The species named for the next experiment is Bos taurus. As to the kind of experiment: Displacement of [3H]colchicine from bovine brain tubulin at 5 uM after 10 mins relative to control.

Take `COc1ccc(-c2nnnn2-c2cc(OC)c(OC)c(OC)c2O)c(O)c1`: the IC50 in the experiment on A549 is 50 µM; in experiment [1], above 20 µM; with MCF7, 46 µM; in the experiment on HeLa, 45 µM; in experiment [2], 49 µM.
In the case of `COc1ccc(-c2nnnn2-c2cc(OC)c(OC)c(OC)c2)c(O)c1O`, the half-maximal inhibitory concentration (IC50) in the experiment with A549 was found to be 6.7 µM; in experiment [1], 2.5 µM; with MCF7, 6.6 µM; in the experiment on HeLa, 0.95 µM; in experiment [2], 8.8 µM. The same compound returned an inhibition in the experiment filed under Bos taurus of 62%.
On to `COc1ccc(-c2nnnn2-c2cc(OC)c(OC)c(OC)c2)c(O)c1N`, for which the IC50 was 0.52 µM with A549; 2.2 µM in experiment [1]; 2.9 µM in the experiment on MCF7; 0.9 µM with HeLa; 4 µM in experiment [2]. This compound also showed an inhibition in the experiment filed under Bos taurus of 69%.
In the case of `COc1ccc(/C=C\c2cc(OC)c(OC)c(OC)c2)cc1O` [COMBRETASTATIN A4], the IC50 with A549 stood at 0.28 µM; in the experiment with MCF7, 0.098 µM; in experiment [2], 0.0062 µM.
Take `COc1ccc(-c2nnnn2-c2cc(OC)c(OC)c(OC)c2)c(O)c1`: the 50% inhibitory concentration (IC50) in the experiment with A549 was 6.4 µM; in experiment [1], 2.7 µM; in the experiment on MCF7, 8.2 µM; in the experiment on HeLa, 2.4 µM; in experiment [2], 7.9 µM. The inhibition in the experiment listed under Bos taurus worked out at 52%.
`COc1ccc(-c2nnnn2-c2cc(OC)c(OC)c(OC)c2O)cc1`: the IC50 was above 100 µM in the experiment with A549; above 20 µM in experiment [1]; 72 µM with MCF7; 92 µM in the experiment on HeLa; 40 µM in experiment [2].
